Measurements published in US20210261621A1, “Preparation of Dilipid Polymixins and Use Thereof as Antimicrobial Adjuvants” (priority 2018, published 2021).
Converted amounts (≈) assume the structure as drawn. “And” between values parts separate entries of the source, which are not always exact repeats. Identical values can stand only once. Like-named read-outs stand apart in the source and are kept apart here. Positions of bridges follow the written chain, without caps; N, C: chain ends. Non-standard residues stand in square brackets, D forms with d. Residues, ends and D or L forms follow the SMILES beside them. *: point of attachment. Octanoyl = CCCCCCCC(=O)*; Dab = NCC[C@H](N)C(=O)O

Tests used:
[1] = tested on: P. aeruginosa; assay: MIC comparison over the P. aeruginosa strains tested; format: cell-based, Pseudomonas aeruginosa; conditions: all eleven P. aeruginosa strains tested (Table 2)
From the text: Specifically, addition of another lipid component to the amine side-chain of Dab1 reduced polymyxin's activity against Escherichia coli, P. aeruginosa, Stenotrophomonas maltophilia, A. baumannii, Klebsiella pneumoniae and Enterobacter cloacae. However, the reduction of activity against P. aeruginosa was not as drastic relative to other Gram-negative pathogens. […] We believe that this selectivity for P. aeruginosa is due to differences in exopolysaccharides and lipopolysaccharides between Gram-negative bacteria. This finding may imply the possibility of developing antipseudomonal polymyxins for pathogen-specific therapy.
The in vitro antibacterial activity of the compounds studied were assessed by broth microdilution susceptibility testing following CLSI guidelines. Bacterial cultures were grown overnight prior to the assay. The overnight grown cultures were diluted in saline to 0.5 McFarland turbidity, followed by 1:50 dilution in Mueller-Hinton broth (MHB) for inoculation to a final concentration of approximately 5×10^5 colony forming units/mL. Testing was performed on 96-well plates where the tested compounds were 2-fold serially diluted in MHB and incubated with equal volumes of bacterial inoculum at 37° C. for 18 h. […] Wells containing MHB with or without bacterial cells were used as positive or negative control, respectively.

[2] = tested on: P. aeruginosa PAO1; parameters: MICDrug / MICDrug in combo / MIC of adjuvant in combo: unit not given beside the values
[3] = tested on: pig erythrocytes
[4] = tested on: P. aeruginosa CANWARD-2011 96846; format: cell-based, Pseudomonas aeruginosa
In short: (§1)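 Overnight cultures were standardized to 0.5 McFarland, diluted 1:50 into Mueller-Hinton broth for a final inoculum near 5×10^5 CFU/mL, then mixed with two-fold serially diluted compound. Plates were incubated 18 h at 37° C. following CLSI guidelines.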

[5] = tested on: E. coli CANWARD-2011 97615; format: cell-based, Escherichia coli
In short: as §1

SMILES: CCCCCCCC(=O)NCC[C@H](NC(=O)CCCCCCC)C(=O)N[C@H](C(=O)N[C@@H](CCN)C(=O)N[C@H]1CCNC(=O)[C@H]([C@@H](C)O)NC(=O)[C@H](CCN)NC(=O)[C@H](CCN)NC(=O)[C@H](CC(C)C)NC(=O)[C@@H](Cc2ccccc2)NC(=O)[C@H](CCN)NC1=O)[C@@H](C)O [Compound 2, Dioctanoic Acid (Di-C8) Polymyxin] (Octanoyl-[Dab](Octanoyl)T[Dab][Dab][Dab][dF]L[Dab][Dab]T; lactam 4-C)
- fold lower MIC than colistin [1]: 4-8 fold
- MIC of adjuvant alone (MIC1, MIC2, MIC3, MIC4, MIC5, MICPMBN) ([2]; adjuvant alone, one value per checkerboard, in µg/mL): 8 and 4
- Interpretation ([2]; combination with Aztreonam): Additive (An FIC index of ≤0.5, 0.5<x≤4, or >4 denotes for synergistic, additive or antagonistic interaction, respectively)
- Interpretation ([2]; combination with Ceftazidime): Additive (An FIC index of ≤0.5, 0.5<x≤4, or >4 denotes for synergistic, additive or antagonistic interaction, respectively)
- Interpretation ([2]; combination with Chloramphenicol): Synergy (An FIC index of ≤0.5, 0.5<x≤4, or >4 denotes for synergistic, additive or antagonistic interaction, respectively)
- Interpretation ([2]; combination with Ciprofloxacin): Additive (An FIC index of ≤0.5, 0.5<x≤4, or >4 denotes for synergistic, additive or antagonistic interaction, respectively)
- Interpretation ([2]; combination with Clindamycin): Synergy (An FIC index of ≤0.5, 0.5<x≤4, or >4 denotes for synergistic, additive or antagonistic interaction, respectively)
- Interpretation ([2]; combination with Doripenem): Additive (An FIC index of ≤0.5, 0.5<x≤4, or >4 denotes for synergistic, additive or antagonistic interaction, respectively)
- Interpretation ([2]; combination with Doxycycline): Additive (An FIC index of ≤0.5, 0.5<x≤4, or >4 denotes for synergistic, additive or antagonistic interaction, respectively)
- Interpretation ([2]; combination with Fosfomycin): Additive (An FIC index of ≤0.5, 0.5<x≤4, or >4 denotes for synergistic, additive or antagonistic interaction, respectively)
- Interpretation ([2]; combination with Gentamicin): Additive (An FIC index of ≤0.5, 0.5<x≤4, or >4 denotes for synergistic, additive or antagonistic interaction, respectively)
- Interpretation ([2]; combination with Linezolid): Additive (An FIC index of ≤0.5, 0.5<x≤4, or >4 denotes for synergistic, additive or antagonistic interaction, respectively)
- Interpretation ([2]; combination with Meropenem): Additive (An FIC index of ≤0.5, 0.5<x≤4, or >4 denotes for synergistic, additive or antagonistic interaction, respectively)
- Interpretation ([2]; combination with Minocycline): Synergy (An FIC index of ≤0.5, 0.5<x≤4, or >4 denotes for synergistic, additive or antagonistic interaction, respectively)
- Interpretation ([2]; combination with Moxifloxacin): Additive (An FIC index of ≤0.5, 0.5<x≤4, or >4 denotes for synergistic, additive or antagonistic interaction, respectively)
- Interpretation ([2]; combination with Novobiocin): Synergy (An FIC index of ≤0.5, 0.5<x≤4, or >4 denotes for synergistic, additive or antagonistic interaction, respectively)
- Interpretation ([2]; combination with Piperacillin): Additive (An FIC index of ≤0.5, 0.5<x≤4, or >4 denotes for synergistic, additive or antagonistic interaction, respectively)
- Interpretation ([2]; combination with Pleuromutilin): Additive (An FIC index of ≤0.5, 0.5<x≤4, or >4 denotes for synergistic, additive or antagonistic interaction, respectively)
- Interpretation ([2]; combination with Rifampicin): Additive (An FIC index of ≤0.5, 0.5<x≤4, or >4 denotes for synergistic, additive or antagonistic interaction, respectively)
- Interpretation ([2]; combination with Streptomycin): Additive (An FIC index of ≤0.5, 0.5<x≤4, or >4 denotes for synergistic, additive or antagonistic interaction, respectively)
- Interpretation ([2]; combination with Tobramycin): Additive (An FIC index of ≤0.5, 0.5<x≤4, or >4 denotes for synergistic, additive or antagonistic interaction, respectively)
- Interpretation ([2]; combination with Trimethoprim): Additive (An FIC index of ≤0.5, 0.5<x≤4, or >4 denotes for synergistic, additive or antagonistic interaction, respectively)
- Interpretation ([2]; combination with Vancomycin): Additive (An FIC index of ≤0.5, 0.5<x≤4, or >4 denotes for synergistic, additive or antagonistic interaction, respectively)
- MIC of adjuvant in combo ([2]; in combination with Aztreonam): (4)
- MIC of adjuvant in combo ([2]; in combination with Ceftazidime): (2)
- MIC of adjuvant in combo ([2]; in combination with Chloramphenicol): (2)
- MIC of adjuvant in combo ([2]; in combination with Ciprofloxacin): (4)
- MIC of adjuvant in combo ([2]; in combination with Clindamycin): (2)
- MIC of adjuvant in combo ([2]; in combination with Doripenem): (4)
- MIC of adjuvant in combo ([2]; in combination with Doxycycline): (4)
- MIC of adjuvant in combo ([2]; in combination with Fosfomycin): (4)
- MIC of adjuvant in combo ([2]; in combination with Gentamicin): (0.125)
- MIC of adjuvant in combo ([2]; in combination with Linezolid): (4)
- MIC of adjuvant in combo ([2]; in combination with Meropenem): (4)
- MIC of adjuvant in combo ([2]; in combination with Minocycline): (2)
- MIC of adjuvant in combo ([2]; in combination with Moxifloxacin): (2)
- MIC of adjuvant in combo ([2]; in combination with Novobiocin): (2)
- MIC of adjuvant in combo ([2]; in combination with Piperacillin): (4)
- MIC of adjuvant in combo ([2]; in combination with Pleuromutilin): (2)
- MIC of adjuvant in combo ([2]; in combination with Rifampicin): (1)
- MIC of adjuvant in combo ([2]; in combination with Streptomycin): (4)
- MIC of adjuvant in combo ([2]; in combination with Tobramycin): (0.125)
- MIC of adjuvant in combo ([2]; in combination with Trimethoprim): (4)
- MIC of adjuvant in combo ([2]; in combination with Vancomycin): (4)
- % Hemolysis at 512 μg/mL of polymyxin [3]: 6.2%
- MIC [4]: 8 mg/L (≈ 6.08 µM)
- MIC [5]: 64 mg/L (≈ 48.6 µM)
